Assay results from PubChem BioAssay (NCI).
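These data come from cells grown in 96-well plates and exposed to compound for 48 hours at five concentrations. At the GI50, growth is halved. TGI: total growth inhibition.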

What was measured:
Assay in all cases: NCI tumour cell line growth inhibition, 48 h
SN12C renal = test system: SN12C renal
SNB-19 CNS = test system: SNB-19 CNS
SF-295 CNS = test system: SF-295 CNS
HCC-2998 colon = test system: HCC-2998 colon
MALME-3M melanoma = test system: MALME-3M melanoma
U251 CNS = test system: U251 CNS
CCRF-CEM leukemia = test system: CCRF-CEM leukemia
SF-268 CNS = test system: SF-268 CNS
KM12 colon = test system: KM12 colon
HCT-116 colon = test system: HCT-116 colon
786-0 renal = test system: 786-0 renal
NCI/ADR-RES ovarian = test system: NCI/ADR-RES ovarian
SK-OV-3 ovarian = test system: SK-OV-3 ovarian
IGROV1 ovarian = test system: IGROV1 ovarian
OVCAR-4 ovarian = test system: OVCAR-4 ovarian
PC-3 prostate = test system: PC-3 prostate
UACC-62 melanoma = test system: UACC-62 melanoma
DU-145 prostate = test system: DU-145 prostate
MCF7 breast = test system: MCF7 breast
CAKI-1 renal = test system: CAKI-1 renal
MOLT-4 leukemia = test system: MOLT-4 leukemia
M14 melanoma = test system: M14 melanoma
MDA-MB-231 breast = test system: MDA-MB-231 breast
OVCAR-8 ovarian = test system: OVCAR-8 ovarian
HCT-15 colon = test system: HCT-15 colon
T-47D breast = test system: T-47D breast
TK-10 renal = test system: TK-10 renal
NCI-H460 lung = test system: NCI-H460 lung
SNB-75 CNS = test system: SNB-75 CNS
SK-MEL-28 melanoma = test system: SK-MEL-28 melanoma
NCI-H23 lung = test system: NCI-H23 lung
ACHN renal = test system: ACHN renal
HOP-92 NSCLC = test system: HOP-92 NSCLC
BT-549 breast = test system: BT-549 breast
SR leukemia = test system: SR leukemia
RXF 393 renal = test system: RXF 393 renal
SK-MEL-5 melanoma = test system: SK-MEL-5 melanoma
LOX IMVI melanoma = test system: LOX IMVI melanoma
COLO 205 colon = test system: COLO 205 colon
UACC-257 melanoma = test system: UACC-257 melanoma
HS 578T breast = test system: HS 578T breast
MDA-MB-435 = test system: MDA-MB-435
OVCAR-3 ovarian = test system: OVCAR-3 ovarian
K-562 leukemia = test system: K-562 leukemia
NCI-H522 lung = test system: NCI-H522 lung
EKVX NSCLC = test system: EKVX NSCLC
RPMI-8226 leukemia = test system: RPMI-8226 leukemia
A498 renal = test system: A498 renal
SF-539 CNS = test system: SF-539 CNS
SW-620 colon = test system: SW-620 colon
UO-31 renal = test system: UO-31 renal
HT29 colon = test system: HT29 colon
HL-60(TB) leukemia = test system: HL-60(TB) leukemia
A549 NSCLC = test system: A549 NSCLC
OVCAR-5 ovarian = test system: OVCAR-5 ovarian
HOP-62 NSCLC = test system: HOP-62 NSCLC
NCI-H226 lung = test system: NCI-H226 lung

CN(c1ccc(Cl)c(Cl)c1)c1cnc2cc(N)cc(N)c2n1
GI50 (SN12C renal): 1750 nM | TGI (SN12C renal): 3.27 µM | GI50 (SNB-19 CNS): 3.75 µM | TGI (SNB-19 CNS): 15.1 µM | GI50 (SF-295 CNS): 3.58 µM | TGI (SF-295 CNS): 12.4 µM | GI50 (HCC-2998 colon): 11.5 µM | TGI (HCC-2998 colon): 24.5 µM | GI50 (MALME-3M melanoma): 2190 nM | TGI (MALME-3M melanoma): 4.28 µM | GI50 (U251 CNS): 2620 nM | TGI (U251 CNS): 6.86 µM | GI50 (CCRF-CEM leukemia): 2640 nM | TGI (CCRF-CEM leukemia): 8.7 µM | GI50 (SF-268 CNS): 4.62 µM | TGI (SF-268 CNS): 25 µM | GI50 (KM12 colon): 7.2 µM | TGI (KM12 colon): 25.8 µM | GI50 (HCT-116 colon): 2310 nM | TGI (HCT-116 colon): 4.9 µM | GI50 (786-0 renal): 12.7 µM | TGI (786-0 renal): 26 µM | GI50 (NCI/ADR-RES ovarian): 10.6 µM | TGI (NCI/ADR-RES ovarian): 30.1 µM | GI50 (SK-OV-3 ovarian): 13.6 µM | TGI (SK-OV-3 ovarian): 37.8 µM | GI50 (IGROV1 ovarian): 5.27 µM | TGI (IGROV1 ovarian): 60.2 µM | GI50 (OVCAR-4 ovarian): 1710 nM | TGI (OVCAR-4 ovarian): 3.32 µM | GI50 (PC-3 prostate): 4.15 µM | TGI (PC-3 prostate): 18.1 µM | GI50 (UACC-62 melanoma): 2250 nM | TGI (UACC-62 melanoma): 4.43 µM | GI50 (DU-145 prostate): 2740 nM | TGI (DU-145 prostate): 7.34 µM | GI50 (MCF7 breast): 2030 nM | TGI (MCF7 breast): 4.93 µM | GI50 (CAKI-1 renal): 4.08 µM | TGI (CAKI-1 renal): 17.6 µM | GI50 (MOLT-4 leukemia): 3.81 µM | TGI (MOLT-4 leukemia): > 100 µM | GI50 (M14 melanoma): 1910 nM | TGI (M14 melanoma): 3.44 µM | GI50 (MDA-MB-231 breast): 3.37 µM | TGI (MDA-MB-231 breast): 15.4 µM | GI50 (OVCAR-8 ovarian): 3.48 µM | TGI (OVCAR-8 ovarian): 15.4 µM | GI50 (HCT-15 colon): 4.57 µM | TGI (HCT-15 colon): 20.1 µM | GI50 (T-47D breast): 2450 nM | TGI (T-47D breast): 8.95 µM | GI50 (TK-10 renal): 13.2 µM | TGI (TK-10 renal): 27.7 µM | GI50 (NCI-H460 lung): 14.2 µM | TGI (NCI-H460 lung): 52.1 µM | GI50 (SNB-75 CNS): 3.34 µM | TGI (SNB-75 CNS): 9.57 µM | GI50 (SK-MEL-28 melanoma): 2980 nM | TGI (SK-MEL-28 melanoma): 8.06 µM | GI50 (NCI-H23 lung): 2110 nM | TGI (NCI-H23 lung): 4.47 µM | GI50 (ACHN renal): 4.64 µM | TGI (ACHN renal): 16 µM | GI50 (HOP-92 NSCLC): 13.1 µM | TGI (HOP-92 NSCLC): 33.4 µM | GI50 (BT-549 breast): 2730 nM | TGI (BT-549 breast): 6.56 µM | GI50 (SR leukemia): 3.77 µM | TGI (SR leukemia): > 100 µM | GI50 (RXF 393 renal): 4.19 µM | TGI (RXF 393 renal): 40.3 µM | GI50 (SK-MEL-5 melanoma): 1960 nM | TGI (SK-MEL-5 melanoma): 3.71 µM | GI50 (LOX IMVI melanoma): 1840 nM | TGI (LOX IMVI melanoma): 3.74 µM | GI50 (COLO 205 colon): 1790 nM | TGI (COLO 205 colon): 3.47 µM | GI50 (UACC-257 melanoma): 1810 nM | TGI (UACC-257 melanoma): 3.59 µM | GI50 (HS 578T breast): 2660 nM | TGI (HS 578T breast): 7.36 µM | GI50 (MDA-MB-435): 1910 nM | TGI (MDA-MB-435): 3.99 µM | GI50 (OVCAR-3 ovarian): 2360 nM | TGI (OVCAR-3 ovarian): 10.9 µM | GI50 (K-562 leukemia): 4.21 µM | TGI (K-562 leukemia): > 100 µM | GI50 (NCI-H522 lung): 2580 nM | TGI (NCI-H522 lung): 6.5 µM | GI50 (EKVX NSCLC): 3.63 µM | TGI (EKVX NSCLC): 11.2 µM | GI50 (RPMI-8226 leukemia): 3.65 µM | TGI (RPMI-8226 leukemia): 26 µM | GI50 (A498 renal): 17.6 µM | TGI (A498 renal): 32.3 µM | GI50 (SF-539 CNS): 4.71 µM | TGI (SF-539 CNS): 17 µM | GI50 (SW-620 colon): 2040 nM | TGI (SW-620 colon): 4.34 µM | GI50 (UO-31 renal): 3.4 µM | TGI (UO-31 renal): 16.6 µM | GI50 (HT29 colon): 4.07 µM | TGI (HT29 colon): 22 µM | GI50 (HL-60(TB) leukemia): 2260 nM | TGI (HL-60(TB) leukemia): 7.56 µM | GI50 (A549 NSCLC): 13.7 µM | TGI (A549 NSCLC): 45.4 µM | GI50 (OVCAR-5 ovarian): 15.7 µM | TGI (OVCAR-5 ovarian): 30.5 µM | GI50 (HOP-62 NSCLC): 2910 nM | TGI (HOP-62 NSCLC): 8.07 µM | GI50 (NCI-H226 lung): 15.1 µM | TGI (NCI-H226 lung): 33.9 µM
